# Patent publication US20210300936A1, “PYRAZOLOTRIAZOLOPYRIMIDINE DERIVATIVES AS A2A RECEPTOR ANTAGONIST” (BEIGENE, LTD., priority 2018, published 2021)
# Molecular target: human A2A receptor (A2AR) (Homo sapiens, UniProt P29274)
# Assay: Luciferase reporter assay (HEK293-A2AR-luc2p/CRE/Hygro cells, 3 nM CGS21680)
# Format: cell-based
# Details: 3 nM CGS21680, 5 h incubation
# How it was run: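 HEK293 cells stably expressing A2AR with a CRE-luc2P reporter were seeded in 1% FBS with 1 U/mL adenosine deaminase. After 18 h, cells got 3 nM CGS21680 plus antagonist at 0.1–10000 nM for 5 h, followed by a luciferase readout. IC50 is relative to the 3 nM CGS21680 signal, set as 100%.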
# Sequence of human A2A receptor (A2AR) (P29274 whole entry): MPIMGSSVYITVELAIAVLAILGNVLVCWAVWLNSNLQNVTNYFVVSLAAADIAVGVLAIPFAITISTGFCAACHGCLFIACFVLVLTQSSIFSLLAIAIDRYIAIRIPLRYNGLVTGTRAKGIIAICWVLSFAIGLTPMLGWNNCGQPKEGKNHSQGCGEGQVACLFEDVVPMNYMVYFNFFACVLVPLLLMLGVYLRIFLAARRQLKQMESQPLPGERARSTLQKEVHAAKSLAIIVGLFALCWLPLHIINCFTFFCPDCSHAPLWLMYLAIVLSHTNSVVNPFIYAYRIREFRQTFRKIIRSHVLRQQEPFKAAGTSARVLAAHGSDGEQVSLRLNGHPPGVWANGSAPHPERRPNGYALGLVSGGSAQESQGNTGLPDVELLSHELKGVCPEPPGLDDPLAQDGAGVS
row,IC50 [nM],Structure (SMILES)
1,3.3,"COCCOc1ccc(N2CCN(C(=O)[C@@](C)(c3ccccc3)n3ncc4c3nc(N)n3nc(-c5ccco5)nc43)CC2)cc1F [Compound A66b, (R)-2-(5-amino-2-(furan-2-yl)-7H-pyrazolo[4,3-e][1,2,4]triazolo[1,5-c]pyrimidin-7-yl)-1-(4-(3-fluoro-4-(2-methoxyethoxy)phenyl)piperazin-1-yl)-2-phenylpropan-1-one]"
2,8.9,"COCCOc1ccc(N2CCN(C(=O)C(C)(c3ccccc3)n3ncc4c3nc(N)n3nc(-c5ccco5)nc43)CC2)c(F)c1F (stereo not drawn) [Compound A67, 2-(5-amino-2-(furan-2-yl)-7H-pyrazolo[4,3-e][1,2,4]triazolo[1,5-c]pyrimidin-7-yl)-1-(4-(2,3-difluoro-4-(2-methoxyethoxy)phenyl)piperazin-1-yl)-2-phenylpropan-1-one]"
3,4.4,"CC(C(=O)N1CCN(c2ccc(F)cc2F)CC1)(c1ccccc1)n1ncc2c1nc(N)n1nc(-c3ccco3)nc21 (stereo not drawn) [Compound A68, 2-(5-amino-2-(furan-2-yl)-7H-pyrazolo[4,3-e][1,2,4]triazolo[1,5-c]pyrimidin-7-yl)-1-(4-(2,4-difluorophenyl)piperazin-1-yl)-2-phenylpropan-1-one]"
4,3.4,"CC(C(=O)N1CCN(c2ccccc2F)CC1)(c1ccccc1)n1ncc2c1nc(N)n1nc(-c3ccco3)nc21 (stereo not drawn) [Compound A69, 2-(5-amino-2-(furan-2-yl)-7H-pyrazolo[4,3-e][1,2,4]triazolo[1,5-c]pyrimidin-7-yl)-1-(4-(2-fluorophenyl)piperazin-1-yl)-2-phenylpropan-1-one]"
5,5,"CC(C(=O)N1CCN(c2ccc(F)cc2)CC1)(c1ccccc1)n1ncc2c1nc(N)n1nc(-c3ccco3)nc21 (stereo not drawn) [Compound A70, 2-(5-amino-2-(furan-2-yl)-7H-pyrazolo[4,3-e][1,2,4]triazolo[1,5-c]pyrimidin-7-yl)-1-(4-(4-fluorophenyl)piperazin-1-yl)-2-phenylpropan-1-one]"
6,10.1,"C[C@@](C(=O)N1CCN(c2ccc(F)cc2)CC1)(c1ccccc1)n1ncc2c1nc(N)n1nc(-c3ccco3)nc21 [Compound A70a, (S)-2-(5-amino-2-(furan-2-yl)-7H-pyrazolo[4,3-e][1,2,4]triazolo[1,5-c]pyrimidin-7-yl)-1-(4-(4-fluorophenyl)piperazin-1-yl)-2-phenylpropan-1-one]"
7,3.4,"C[C@](C(=O)N1CCN(c2ccc(F)cc2)CC1)(c1ccccc1)n1ncc2c1nc(N)n1nc(-c3ccco3)nc21 [Compound A70b, (R)-2-(5-amino-2-(furan-2-yl)-7H-pyrazolo[4,3-e][1,2,4]triazolo[1,5-c]pyrimidin-7-yl)-1-(4-(4-fluorophenyl)piperazin-1-yl)-2-phenylpropan-1-one]"
8,7.5,"CN(C)CCOc1ccc(N2CCN(C(=O)C(C)(c3ccccc3)n3ncc4c3nc(N)n3nc(-c5ccco5)nc43)CC2)cc1 (stereo not drawn) [Compound A71, 2-(5-amino-2-(furan-2-yl)-7H-pyrazolo[4,3-e][1,2,4]triazolo[1,5-c]pyrimidin-7-yl)-1-(4-(4-(2-(dimethylamino)ethoxy)phenyl)piperazin-1-yl)-2-phenylpropan-1-one]"
9,103,"COCCOc1ccc(N2CCN(C(=O)C(C)(c3ccccc3)n3ncc4c3nc(N)n3nc(-c5ccco5)nc43)[C@@H](C)C2)cc1 (stereo partly drawn) [Compound A72, 2-(5-amino-2-(furan-2-yl)-7H-pyrazolo[4,3-e][1,2,4]triazolo[1,5-c]pyrimidin-7-yl)-1-((S)-4-(4-(2-methoxyethoxy)phenyl)-2-methylpiperazin-1-yl)-2-phenylpropan-1-one]"
10,15.6,"COCCOc1ccc(N2CCN(C(=O)C(C)(c3ccccc3)n3ncc4c3nc(N)n3nc(-c5ccco5)nc43)C[C@H]2C)cc1 (stereo partly drawn) [Compound A73, 2-(5-amino-2-(furan-2-yl)-7H-pyrazolo[4,3-e][1,2,4]triazolo[1,5-c]pyrimidin-7-yl)-1-((R)-4-(4-(2-methoxyethoxy)phenyl)-3-methylpiperazin-1-yl)-2-phenylpropan-1-one]"
11,5.1,"COCCOc1ccc(N2CCN(C(=O)C(C)(c3ccccc3)n3ncc4c3nc(N)n3nc(-c5ccco5)nc43)C[C@@H]2C)cc1 (stereo partly drawn) [Compound A74, 2-(5-amino-2-(furan-2-yl)-7H-pyrazolo[4,3-e][1,2,4]triazolo[1,5-c]pyrimidin-7-yl)-1-((S)-4-(4-(2-methoxyethoxy)phenyl)-3-methylpiperazin-1-yl)-2-phenylpropan-1-one]"
12,6.4,"COCCOc1ccc(N2CCN(C(=O)C(C)(c3cccc(C)c3)n3ncc4c3nc(N)n3nc(-c5ccco5)nc43)CC2)cc1 (stereo not drawn) [Compound A75, 2-(5-amino-2-(furan-2-yl)-7H-pyrazolo[4,3-e][1,2,4]triazolo[1,5-c]pyrimidin-7-yl)-1-(4-(4-(2-methoxyethoxy)phenyl)piperazin-1-yl)-2-(m-tolyl)propan-1-one]"
13,7.3,"CC(C(=O)N1CCN(c2ccc(OCCCN3CCOCC3)cc2)CC1)(c1ccccc1)n1ncc2c1nc(N)n1nc(-c3ccco3)nc21 (stereo not drawn) [Compound A76, 2-(5-amino-2-(furan-2-yl)-7H-pyrazolo[4,3-e][1,2,4]triazolo[1,5-c]pyrimidin-7-yl)-1-(4-(4-(3-morpholinopropoxy)phenyl)piperazin-1-yl)-2-phenylpropan-1-one]"
14,19.1,"C[C@@](C(=O)N1CCN(c2ccc(OCCCN3CCOCC3)cc2)CC1)(c1ccccc1)n1ncc2c1nc(N)n1nc(-c3ccco3)nc21 [Compound A76a, (S)-2-(5-amino-2-(furan-2-yl)-7H-pyrazolo[4,3-e][1,2,4]triazolo[1,5-c]pyrimidin-7-yl)-1-(4-(4-(3-morpholinopropoxy)phenyl)piperazin-1-yl)-2-phenylpropan-1-one]"
15,3.9,"C[C@](C(=O)N1CCN(c2ccc(OCCCN3CCOCC3)cc2)CC1)(c1ccccc1)n1ncc2c1nc(N)n1nc(-c3ccco3)nc21 [Compound A76b, (R)-2-(5-amino-2-(furan-2-yl)-7H-pyrazolo[4,3-e][1,2,4]triazolo[1,5-c]pyrimidin-7-yl)-1-(4-(4-(3-morpholinopropoxy)phenyl)piperazin-1-yl)-2-phenylpropan-1-one]"
16,4.2,"COc1cccc(N2CCN(C(=O)C(C)(c3ccccc3)n3ncc4c3nc(N)n3nc(-c5ccco5)nc43)CC2)c1 (stereo not drawn) [Compound A77, 2-(5-amino-2-(furan-2-yl)-7H-pyrazolo[4,3-e][1,2,4]triazolo[1,5-c]pyrimidin-7-yl)-1-(4-(3-methoxyphenyl)piperazin-1-yl)-2-phenylpropan-1-one]"
17,6.2,"COc1ccccc1N1CCN(C(=O)C(C)(c2ccccc2)n2ncc3c2nc(N)n2nc(-c4ccco4)nc32)CC1 (stereo not drawn) [Compound A78, 2-(5-amino-2-(furan-2-yl)-7H-pyrazolo[4,3-e][1,2,4]triazolo[1,5-c]pyrimidin-7-yl)-1-(4-(2-methoxyphenyl)piperazin-1-yl)-2-phenylpropan-1-one]"
18,7.1,"CC(C(=O)N1CCN(c2ccc(OCCCN3CCCC3)cc2)CC1)(c1ccccc1)n1ncc2c1nc(N)n1nc(-c3ccco3)nc21 (stereo not drawn) [Compound A79, 2-(5-amino-2-(furan-2-yl)-7H-pyrazolo[4,3-e][1,2,4]triazolo[1,5-c]pyrimidin-7-yl)-2-phenyl-1-(4-(4-(3-(pyrrolidin-1-yl)propoxy)phenyl)piperazin-1-yl)propan-1-one]"
19,21.4,"C[C@@](C(=O)N1CCN(c2ccc(OCCCN3CCCC3)cc2)CC1)(c1ccccc1)n1ncc2c1nc(N)n1nc(-c3ccco3)nc21 [Compound A79a, (S)-2-(5-amino-2-(furan-2-yl)-7H-pyrazolo[4,3-e][1,2,4]triazolo[1,5-c]pyrimidin-7-yl)-2-phenyl-1-(4-(4-(3-(pyrrolidin-1-yl)propoxy)phenyl)piperazin-1-yl)propan-1-one]"
20,6.8,"C[C@](C(=O)N1CCN(c2ccc(OCCCN3CCCC3)cc2)CC1)(c1ccccc1)n1ncc2c1nc(N)n1nc(-c3ccco3)nc21 [Compound A79b, (R)-2-(5-amino-2-(furan-2-yl)-7H-pyrazolo[4,3-e][1,2,4]triazolo[1,5-c]pyrimidin-7-yl)-2-phenyl-1-(4-(4-(3-(pyrrolidin-1-yl)propoxy)phenyl)piperazin-1-yl)propan-1-one]"
21,4.3,"CC(C(=O)N1CCN(c2ccc(OCCN3CCOCC3)cc2)CC1)(c1ccccc1)n1ncc2c1nc(N)n1nc(-c3ccco3)nc21 (stereo not drawn) [Compound A80, 2-(5-amino-2-(furan-2-yl)-7H-pyrazolo[4,3-e][1,2,4]triazolo[1,5-c]pyrimidin-7-yl)-1-(4-(4-(2-morpholinoethoxy)phenyl)piperazin-1-yl)-2-phenylpropan-1-one]"
22,7.4,"C[C@@](C(=O)N1CCN(c2ccc(OCCN3CCOCC3)cc2)CC1)(c1ccccc1)n1ncc2c1nc(N)n1nc(-c3ccco3)nc21 [Compound A80a, (S)-2-(5-amino-2-(furan-2-yl)-7H-pyrazolo[4,3-e][1,2,4]triazolo[1,5-c]pyrimidin-7-yl)-1-(4-(4-(2-morpholinoethoxy)phenyl)piperazin-1-yl)-2-phenylpropan-1-one]"
23,2.8,"C[C@](C(=O)N1CCN(c2ccc(OCCN3CCOCC3)cc2)CC1)(c1ccccc1)n1ncc2c1nc(N)n1nc(-c3ccco3)nc21 [Compound A80b, (R)-2-(5-amino-2-(furan-2-yl)-7H-pyrazolo[4,3-e][1,2,4]triazolo[1,5-c]pyrimidin-7-yl)-1-(4-(4-(2-morpholinoethoxy)phenyl)piperazin-1-yl)-2-phenylpropan-1-one]"
24,4.7,"CN1CCN(CCOc2ccc(N3CCN(C(=O)C(C)(c4ccccc4)n4ncc5c4nc(N)n4nc(-c6ccco6)nc54)CC3)cc2)CC1 (stereo not drawn) [Compound A81, 2-(5-amino-2-(furan-2-yl)-7H-pyrazolo[4,3-e][1,2,4]triazolo[1,5-c]pyrimidin-7-yl)-1-(4-(4-(2-(4-methylpiperazin-1-yl)ethoxy)phenyl)piperazin-1-yl)-2-phenylpropan-1-one]"
